Like-named read-outs stand apart in the source and are kept apart here.
Columns and labels:
[1] = test system: patients with a history of myocardial infarction; conditions: for proportion of patients who prematurely discontinued treatment: over the duration of the trial
Excerpt: Any erroneously treated patients (e.g., randomized to ticagrelor but actually given placebo) were to be accounted for in the actual treatment group.
The primary efficacy endpoint was the composite of cardiovascular death, myocardial infarction, or stroke. Secondary endpoints were cardiovascular death and all-cause mortality. The analysis of secondary endpoints proceeded in a hierarchical fashion, starting with cardiovascular death and then death from any cause. Additional endpoints listed below were evaluated on an exploratory basis. Exploratory efficacy endpoints included substituting coronary heart disease death for cardiovascular death, and the additional end points of urgent coronary revascularization, unstable angina, and transient ischemic attack. The primary safety endpoint was TIMI major bleeding. Other safety endpoints included intracranial hemorrhage (ICH) and fatal bleeding. […] A central clinical events committee whose members were unaware of the treatment assignments adjudicated all efficacy endpoints and bleeding episodes.
Safety analyses included all randomized patients who received at least one dose of study drug and for whom post-dose data were available. Patients were censored at the first of the pre-specified Common Study End Date, withdrawal of consent, or the last clinical event assessment. Safety was analyzed as on-treatment including all events occurring after first dose and within 7 days after the last dose of study drug. […] Event rates are expressed as Kaplan-Meier estimates of cumulative incidence.

[2] = room temperature; crystalline powder; cited from earlier work
[3] = test system: patients with acute coronary syndrome; conditions: cited from earlier work
[4] = 90 mg bid (N = 6988), listed as ticagrelor
[5] = 90 mg bid, intention-to-treat population

With `CCCSc1nc(N[C@@H]2C[C@H]2c2ccc(F)c(F)c2)c2nnn([C@@H]3C[C@H](OCCO)[C@@H](O)[C@H]3O)c2n1` [Ticagrelor, (1S,2S,3R,5S)-3-[7-{[(1R,2S)-2-(3,4-difluorophenyl)cyclopropyl]amino}-5-(propylthio)-3H-[1,2,3]-triazolo[4,5-d]pyrimidin-3-yl]-5-(2-hydroxyethoxy)cyclopentane-1,2-diol] the “Non-Cardiovascular death: n” value ([1]; 60 mg bid, intention-to-treat population) was 113, the “proportion of patients who prematurely discontinued treatment” value ([1]; 60 mg) was 28.7% and the “Dyspnea, 3-year event rate” value ([1]; 90 mg bid) was 18.9%. For the same molecule, the “Fatal bleeding: ARI (%)” value ([1]; 90 mg bid) was −0.15%, the Hypotension ([1]; 90 mg bid) was 0.66 events/100 pt years and the “ICH: ARI (%)” value ([1]; 90 mg bid) was 0.09%. For the same molecule, the “ICH: NNH” value ([1]; 90 mg bid) was 1111, the “TIMI major bleeding: ARI (%)” value ([1]; 90 mg bid) was 1.54% and the “TIMI major bleeding: NNH” value ([1]; 90 mg bid) was 65. For the same molecule, the “frequency of death (including bleeding)” value ([1]; 90 mg bid) was 4.8%, the “frequency of death, bleeding events excluded” value ([1]; 90 mg bid) was 4.4% and the “median duration of resolved dyspnea adverse events” value ([1]; 90 mg bid) was 22 days. For the same molecule, the “Adverse event leading to death: (%)” value ([1]; 90 mg bid (N = 6988)) was “(2.3) %”, the “Adverse event leading to death: n” value ([1]; 90 mg bid (N = 6988)) was 161 and the “Adverse event leading to discontinuation of study drug: (%)” value ([1]; 90 mg bid (N = 6988)) was “(18.7) %”. For the same molecule, the “Adverse event leading to discontinuation of study drug: n” value ([1]; 90 mg bid (N = 6988)) was 1306, the “Any adverse event: (%)” value ([1]; 90 mg bid (N = 6988)) was “(76.2) %” and the “Any adverse event: n” value ([1]; 90 mg bid (N = 6988)) was 5327. The “Any serious adverse event: (%)” value ([1]; 90 mg bid (N = 6988)) was “(21.7) %”, the “Any serious adverse event: n” value ([1]; 90 mg bid (N = 6988)) was 1514 and the “Bleeding leading to study drug discontinuation: 3-year Kaplan-Meier estimate” value ([1]; 90 mg bid (N = 6988)) was “(7.80) %”. The “Bleeding leading to study drug discontinuation: n” value ([1]; 90 mg bid (N = 6988)) was 454, the “Bleeding requiring transfusion: 3-year Kaplan-Meier estimate” value ([1]; 90 mg bid (N = 6988)) was “(2.40) %” and the “Bleeding requiring transfusion: n” value ([1]; 90 mg bid (N = 6988)) was 122. The “Bradyarrhythmia adverse event: (%)” value ([1]; 90 mg bid (N = 6988)) was “(1.5) %”, the “Bradyarrhythmia adverse event: n” value ([1]; 90 mg bid (N = 6988)) was 105 and the “Dyspnea AE: (%)” value ([1]; 90 mg bid (N = 6988)) was “(17.22) %”. For the same molecule, the “Dyspnea AE: n” value ([1]; 90 mg bid (N = 6988)) was 1204, the “Dyspnea SAE: (%)” value ([1]; 90 mg bid (N = 6988)) was “(0.3) %” and the “Dyspnea SAE: n” value ([1]; 90 mg bid (N = 6988)) was 22. The “Dyspnea leading to study drug discontinuation: (%)” value ([1]; 90 mg bid (N = 6988)) was “(6.2) %”, the “Dyspnea leading to study drug discontinuation: n” value ([1]; 90 mg bid (N = 6988)) was 430 and the “Fatal Bleeding: 3-year Kaplan-Meier estimate” value ([1]; 90 mg bid (N = 6988)) was “(0.11) %”. The “Fatal Bleeding: n” value ([1]; 90 mg bid (N = 6988)) was 6, the “Fatal bleeding or non-fatal intracranial hemorrhage: 3-year Kaplan-Meier estimate” value ([1]; 90 mg bid (N = 6988)) was “(0.71) %” and the “Fatal bleeding or non-fatal intracranial hemorrhage: n” value ([1]; 90 mg bid (N = 6988)) was 33. The “Gout adverse event: (%)” value ([1]; 90 mg bid (N = 6988)) was “(1.4) %”, the “Gout adverse event: n” value ([1]; 90 mg bid (N = 6988)) was 99 and the “Intracranial Hemorrhage: 3-year Kaplan-Meier estimate” value ([1]; 90 mg bid (N = 6988)) was “(0.56) %”. The “Intracranial Hemorrhage: n” value ([1]; 90 mg bid (N = 6988)) was 29, the “Renal adverse event: (%)” value ([1]; 90 mg bid (N = 6988)) was “(2.4) %” and the “Renal adverse event: n” value ([1]; 90 mg bid (N = 6988)) was 166. For the same molecule, the “Serious adverse event leading to discontinuation of study drug: (%)” value ([1]; 90 mg bid (N = 6988)) was “(3.7) %”, the “Serious adverse event leading to discontinuation of study drug: n” value ([1]; 90 mg bid (N = 6988)) was 256 and the “TIMI Major bleeding: 3-year Kaplan-Meier estimate” value ([1]; 90 mg bid (N = 6988)) was “(2.60) %”. For the same molecule, the “TIMI Major bleeding: n” value ([1]; 90 mg bid (N = 6988)) was 127, the “TIMI Minor bleeding: 3-year Kaplan-Meier estimate” value ([1]; 90 mg bid (N = 6988)) was “(1.31) %” and the “TIMI Minor bleeding: n” value ([1]; 90 mg bid (N = 6988)) was 66. For the same molecule, the “Bleeding leading to study drug discontinuation: 3-year Kaplan-Meier estimate” value [1, 4] was 7.8%, the “Bleeding requiring transfusion: 3-year Kaplan-Meier estimate” value [1, 4] was 2.4% and the “Dyspnea leading to study drug discontinuation: (%)” value [1, 4] was 6.5%. The “Fatal Bleeding: 3-year Kaplan-Meier estimate” value [1, 4] was 0.1%, the “Intracranial Hemorrhage: 3-year Kaplan-Meier estimate” value [1, 4] was 0.6% and the “TIMI Major bleeding: 3-year Kaplan-Meier estimate” value [1, 4] was 2.60%. For the same molecule, the “Bleeding leading to study drug discontinuation: HR” value ([1]; 90 mg bid vs Placebo) was 5.67, the “Bleeding requiring transfusion: HR” value ([1]; 90 mg bid vs Placebo) was 3.75 and the “Dyspnea AE: HR” value ([1]; 90 mg bid vs Placebo) was 3.55. For the same molecule, the “Dyspnea SAE: HR” value ([1]; 90 mg bid vs Placebo) was 3.02, the “Dyspnea leading to study drug discontinuation: HR” value ([1]; 90 mg bid vs Placebo) was 8.89 and the “Fatal Bleeding: HR” value ([1]; 90 mg bid vs Placebo) was 0.58. For the same molecule, the “Fatal bleeding or non-fatal intracranial hemorrhage: HR” value ([1]; 90 mg bid vs Placebo) was 1.20, the “Intracranial Hemorrhage: HR” value ([1]; 90 mg bid vs Placebo) was 1.44 and the “TIMI Major bleeding: HR” value ([1]; 90 mg bid vs Placebo) was 2.69. For the same molecule, the “TIMI Minor bleeding: HR” value ([1]; 90 mg bid vs Placebo) was 4.15, the “TIMI major bleeding events per year if 10,000 patients were started on treatment versus placebo” value ([1]; 90 mg bid, intention-to-treat data) was 41 and the “Death: (%)” value [1, 5] was “(4.6) %”. The “Death: n” value [1, 5] was 326, the “Non-Cardiovascular death: (%)” value [1, 5] was “(2.0) %” and the “Non-Cardiovascular death: n” value [1, 5] was 142. The “proportion of patients who prematurely discontinued treatment” value ([1]; 90 mg) was 32.0%, the “serum uric acid level increase from baseline” value ([1]; PEGASUS, 60 mg bid) was “approximately 0.2 mg/dL” and the “Gout, patients” value ([1]; PEGASUS, experimental arm) was 1.5%. The “dyspneic episodes characterized as mild” value ([1]; either dose of ticagrelor) was 57%, the “dyspneic episodes characterized as moderate” value ([1]; either dose of ticagrelor) was 38% and the “dyspnea as a serious adverse event, 3-year rate” value ([1]; patients on ticagrelor) was 0.3%. The aqueous solubility [2] was “approximately 10 μg/mL”, the “major adverse cardiovascular events including cardiovascular death compared with clopidogrel 75 mg once daily” value ([3]; 90 mg twice daily added to aspirin for up to 1 year, acute coronary syndrome) was “reduced” and the “effect on pulmonary function” value ([3]; PLATO substudy, 199 subjects, after one month or after at least 6 months of chronic treatment) was “no indication of an adverse effect on pulmonary function”. The reports of gout ([3]; PLATO, each treatment group) was 0.6% and the “serum uric acid level increase from baseline” value ([3]; PLATO, ticagrelor 90 mg bid) was “approximately 0.6 mg/dL”.

From patent publication US10300065B2, “Method of treating or prevention of atherothrombotic events in patients with history of myocardial infarction” (ASTRAZENECA AB, priority 2015, dated 2019)
